Laboratory results from publication PMC12347391, “Sulforaphane-Rich Broccoli Sprout Extract Promotes Hair Regrowth in an Androgenetic Alopecia Mouse Model via Enhanced Dihydrotestosterone Metabolism” (International Journal of Molecular Sciences, 2025).
Like-named read-outs stand apart in the source and are kept apart here.

Legend:
HDP cells [1] = test: In vitro cell proliferation assay (WST-1); type: cell-based, human; settings: between 0.5 and 5 µg/mL
HDP cells [2] = test: In vitro scratch wound recovery assay; type: cell-based, human
Method: No. BA-045855; Sartorius AG, […], Germany). […] Sartorius AG), following the manufacturer's instructions. Detached cells were removed by washing twice with PBS (pH 7.4). […] All treatments were performed in triplicate, including a vehicle control. […] Wound closure was quantified using the Incucyte® Scratch Wound Analysis Software Module, which calculates relative wound density (%) by comparing cell density within the wound area to that of the surrounding monolayer, providing an objective measure of cell migration and proliferation over time.

HDP cells [3] = test: Boyden chamber migration assay; type: cell-based, human; settings: 24 h, BSE based on SFN equivalence
Method: To evaluate the migratory ability of HDP cells, a Boyden chamber assay was performed. HDP cells were serum-starved for 24 h in a medium containing 0.5% (v/v) FCS. […] The lower chambers were filled with 600 µL of HDP medium supplemented with 4% FCS, 4% bovine pituitary extract, 1 ng/L recombinant human fibroblast growth factor, and 5 µg/L recombinant human insulin. After a 24 h incubation period to allow for migration, cells were fixed with 4% paraformaldehyde (BL539A, Biosharp, Hefei, Anhui, China) for 15 min and stained using Crystal Violet Staining Solution (C0121, Beyotime, Shanghai, China) for 10 min. Non-migrated cells on the upper side of the insert membrane were carefully removed using a cotton swab. To quantify migrated cells, the basal chambers were filled with 500 µL of calcein-AM-based cell dissociation solution. Cells were incubated for 1 h at 37 °C, and the fluorescence of the dissociated calcein-AM was measured using a microplate reader at an excitation wavelength of 485 nm and an emission wavelength of 520 nm.

in vivo = settings: Sprague-Dawley, rat, plasma, rats; for AUC(0-inf): read-out: AUCinf of SFN; for AUC(0-t): read-out: AUClast of SFN; for half-life: read-out: T1/2 of SFN (converted)
Method: To evaluate absolute oral bioavailability, an intravenous (IV) bolus dose of SFN (2 mg/kg, dissolved in normal saline, 200 µL) was administered via a cannulated femoral vein. Blood samples (300 µL) were collected from the femoral artery at predetermined time points: 0.17, 0.5, 1, 1.5, 2, 4, 8, and 12 h post-IV dosing, and 0.17, 0.5, 1, 2, 4, 6, 8, and 12 h post-oral dosing. Samples were immediately centrifuged at 13,000× g for 5 min at 4 °C to separate plasma, which was stored at −80 °C until further analysis.
The plasma concentrations of SFN were determined using liquid chromatography–tandem mass spectrometry (LC–MS/MS) following protein precipitation and solid-phase extraction. Briefly, 180 µL of plasma was spiked with 10 µL of SFN working solution (0.2–20 µg/mL) and 10 µL of internal standard (IS), phenethyl isothiocyanate (PHE, 5 µg/mL in acetonitrile). Proteins were precipitated by adding 200 µL of a solvent mixture consisting of 25% acetonitrile, 25% water, and 50% ethanol, followed by centrifugation at 18,340× g for 5 min at 4 °C. The resulting 400 µL supernatant was subjected to SPE using Oasis® HLB 96-well µElution plates (2 mg sorbent per well, 30 µm particle size; Waters Corporation, Milford, MA, USA), preconditioned with 200 µL each of methanol and water. After sample loading, the wells were washed sequentially with 200 µL of water and 50% aqueous methanol, and analytes were eluted with 400 µL of acetonitrile (2 × 200 µL).
Chromatographic separation was achieved on an ACQUITY UPLC system (Waters Corporation) using a BEH C18 column (50 × 2.1 mm, 1.7 µm). The mobile phase consisted of 10 mM ammonium acetate in water (30%, solvent A) and 0.1% formic acid in acetonitrile (70%, solvent B), delivered at a flow rate of 0.6 mL/min. The column temperature was maintained at 50 °C, and the injection volume was 10 µL.
Detection was performed using a Xevo TQ-S triple quadrupole mass spectrometer (Waters Corporation) equipped with an electrospray ionization source in the positive-ion mode. Multiple reaction monitoring (MRM) transitions were set at m/z 178.0 → 114.0 for SFN (cone voltage: 24 V; collision energy: 30 eV) and m/z 164.0 → 130.0 for PHE (cone voltage: 23 V; collision energy: 22 eV). The instrument settings included a capillary voltage of 3.0 kV, source temperature of 120 °C, desolvation temperature of 500 °C, desolvation gas (nitrogen) flow of 800 L/h, and cone gas (nitrogen) flow of 50 L/h. Argon was used as the collision gas. All the MRM parameters were optimized using the software IntelliStart^TM (Waters Corporation).
The calibration curve for SFN was linear over the range of 0.5–1000 ng/mL, with a lower limit of detection (LOD) of 0.5 ng/mL. The overall recovery of SFN using the described extraction method was 90 ± 3%, when compared to the direct analysis of the standard diluted in methanol.

HaCaT keratinocytes = settings: human, 24 h
[4] = tested on: CCD-986sk dermal fibroblasts; settings: human, 24 h
[5] = in water at 25 °C; cited from earlier work
[6] = after 5 weeks, cited from earlier work
[7] = pH 1.2 (mimics gastric fluid), within 1 h; cited from earlier work
[8] = in humans; cited from earlier work

Cmax (in vivo; SFN IV 2 mg/kg): 339 ± 50 ng/mL
AUC(0-inf) (in vivo; SFN IV 2 mg/kg): 421 ± 67 ng·h/mL
AUC(0-t) (in vivo; SFN IV 2 mg/kg): 403 ± 52 ng·h/mL
half-life (in vivo; SFN IV 2 mg/kg): 7 ± 3 h
Cmax (in vivo; SFN oral 5 mg/kg): 155 ± 17 ng/mL
Tmax (in vivo; SFN oral 5 mg/kg): 2 h
bioavailability (in vivo; SFN oral 5 mg/kg, vs SFN IV): 87 ± 5%
AUC(0-inf) (in vivo; SFN oral 5 mg/kg): 934 ± 41 ng·h/mL
AUC(0-t) (in vivo; SFN oral 5 mg/kg): 874 ± 46 ng·h/mL
half-life (in vivo; SFN oral 5 mg/kg): 5 h
SMILES: C[S+]([O-])CCCCN=C=S (stereo not drawn) [SFN, Sulforaphane]
relative cell proliferation (HDP cells [1]): approximately 200%
scratch wound closure (HDP cells [2]; 1 µg/mL, 16 h): 71.5%
scratch wound closure (HDP cells [2]; 1 µg/mL, 20 h): 74.9%
scratch wound closure (HDP cells [2]; 1 µg/mL, 24 h): 94.8%
scratch wound closure (HDP cells [2]; 25 µg/mL, 16 h): significant cell detachment and reduced recovery
scratch wound closure (HDP cells [2]; 25 µg/mL, 20 h): remaining below the control
relative HDP cell migration (untreated control = 100%) (HDP cells [3]; 0.1 µg/mL): 141%
relative HDP cell migration (untreated control = 100%) (HDP cells [3]; 1 µg/mL): 150%
relative HDP cell migration (untreated control = 100%) (HDP cells [3]; 25 µg/mL): 16.7%
concentration above which cytotoxic effects (decreased cell viability) were seen (HaCaT keratinocytes): above 10 µg/mL
concentration at which proliferation decreased (dose-dependent cytotoxicity) [4]: ≥ 5000 ng/mL
aqueous solubility [5]: ~ 1.85 mg/mL
residual SFN content ([6]; stored at 4 °C): 95.18 ± 0.20%
residual SFN content ([6]; stored at 26 °C): 78.45 ± 0.28%
residual SFN content ([6]; stored at −20 °C): 96.56 ± 0.15%
fraction degraded [7]: ~90%
biological half-life [8]: approximately 2.2 h
